Reference: the supplement of paper PMC10307832

Legend:
Assay in all cases: relative viability (nuclei count vs DMSO), 5 days (fraction); higher = more cells survive
HCC-78 = tested on: HCC-78
Method in brief: (§1)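 Relative viability is defined as nuclei in treated wells over nuclei in vehicle wells. Duplicate plates were run and medians reported. Lung cancer cell lines in 1536-well plates were dosed by pin tool one day after seeding, with one drug or with a fixed anchor-drug dose plus five library-drug doses (not always all listed) in √10 steps, and nuclei were counted after 5 days.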

LOU-NH91 = tested on: LOU-NH91
Method in brief: as §1

UMC-11 = tested on: UMC-11
Method in brief: as §1

SW 1573 = tested on: SW 1573
Method in brief: as §1

NCI-H727 = tested on: NCI-H727
Method in brief: as §1

NCI-H1650 = tested on: NCI-H1650
Method in brief: as §1

NCI-H2347 = tested on: NCI-H2347
Method in brief: as §1

NCI-H1755 = tested on: NCI-H1755
Method in brief: as §1

ABC-1 = tested on: ABC-1
Method in brief: as §1

LK-2 = tested on: LK-2
Method in brief: as §1

NCI-H2228 = tested on: NCI-H2228
Method in brief: as §1

HCC-44 = tested on: HCC-44
Method in brief: as §1

NCI-H358 = tested on: NCI-H358
Method in brief: as §1

NCI-H1703 = tested on: NCI-H1703
Method in brief: as §1

NCI-H838 = tested on: NCI-H838
Method in brief: as §1

NCI-H1666 = tested on: NCI-H1666
Method in brief: as §1

201T = tested on: 201T
Method in brief: as §1

NCI-H1355 = tested on: NCI-H1355
Method in brief: as §1

NCI-H2009 = tested on: NCI-H2009
Method in brief: as §1

BEN = tested on: BEN
Method in brief: as §1

HCC-366 = tested on: HCC-366
Method in brief: as §1

NCI-H2405 = tested on: NCI-H2405
Method in brief: as §1

NCI-H520 = tested on: NCI-H520
Method in brief: as §1

IA-LM = tested on: IA-LM
Method in brief: as §1

NCI-H1734 = tested on: NCI-H1734
Method in brief: as §1

CCCCCCCCCCCC1=C(O)C(=O)C=C(O)C1=O [Embelin] + CS(=O)(=O)N1CCN(Cc2cc3nc(-c4cccc5[nH]ncc45)nc(N4CCOCC4)c3s2)CC1 [Pictilisib] (partner 1 µM)
relative viability (HCC-78; first compound 0.08 µM): 0.263
relative viability (HCC-78; first compound 0.8 µM): 0.216
relative viability (HCC-78; first compound 2.53 µM): 0.225
relative viability (HCC-78; first compound 8 µM): 0.219
relative viability (LOU-NH91; first compound 0.08 µM): 0.543
relative viability (LOU-NH91; first compound 0.8 µM): 0.597
relative viability (LOU-NH91; first compound 2.53 µM): 0.552
relative viability (LOU-NH91; first compound 8 µM): 0.459
relative viability (UMC-11; first compound 0.08 µM): 0.852
relative viability (UMC-11; first compound 0.8 µM): 1
relative viability (UMC-11; first compound 2.53 µM): 1.11
relative viability (UMC-11; first compound 8 µM): 0.667
relative viability (SW 1573; first compound 0.08 µM): 0.475
relative viability (SW 1573; first compound 0.8 µM): 0.546
relative viability (SW 1573; first compound 2.53 µM): 0.555
relative viability (SW 1573; first compound 8 µM): 0.527
relative viability (NCI-H727; first compound 0.08 µM): 0.359
relative viability (NCI-H727; first compound 0.8 µM): 0.526
relative viability (NCI-H727; first compound 2.53 µM): 0.355
relative viability (NCI-H727; first compound 8 µM): 0.51
relative viability (NCI-H1650; first compound 0.08 µM): 0.695
relative viability (NCI-H1650; first compound 0.8 µM): 0.715
relative viability (NCI-H1650; first compound 2.53 µM): 0.632
relative viability (NCI-H1650; first compound 8 µM): 0.504
relative viability (NCI-H2347; first compound 0.08 µM): 0.64
relative viability (NCI-H2347; first compound 0.8 µM): 0.886
relative viability (NCI-H2347; first compound 2.53 µM): 0.924
relative viability (NCI-H2347; first compound 8 µM): 0.592
relative viability (NCI-H1755; first compound 0.08 µM): 0.502
relative viability (NCI-H1755; first compound 0.8 µM): 0.499
relative viability (NCI-H1755; first compound 2.53 µM): 0.367
relative viability (NCI-H1755; first compound 8 µM): 0.333
relative viability (ABC-1; first compound 0.08 µM): 0.876
relative viability (ABC-1; first compound 0.8 µM): 0.861
relative viability (ABC-1; first compound 2.53 µM): 0.678
relative viability (ABC-1; first compound 8 µM): 0.646
relative viability (LK-2; first compound 0.08 µM): 0.567
relative viability (LK-2; first compound 0.8 µM): 0.578
relative viability (LK-2; first compound 2.53 µM): 0.63
relative viability (LK-2; first compound 8 µM): 0.562
relative viability (NCI-H2228; first compound 0.08 µM): 0.476
relative viability (NCI-H2228; first compound 0.8 µM): 0.375
relative viability (NCI-H2228; first compound 2.53 µM): 0.457
relative viability (NCI-H2228; first compound 8 µM): 0.366
relative viability (HCC-44; first compound 0.08 µM): 0.62
relative viability (HCC-44; first compound 0.8 µM): 0.61
relative viability (HCC-44; first compound 2.53 µM): 0.678
relative viability (HCC-44; first compound 8 µM): 0.7
relative viability (NCI-H358; first compound 0.08 µM): 0.425
relative viability (NCI-H358; first compound 0.8 µM): 0.39
relative viability (NCI-H358; first compound 2.53 µM): 0.315
relative viability (NCI-H358; first compound 8 µM): 0.294
relative viability (NCI-H1703; first compound 0.08 µM): 0.232
relative viability (NCI-H1703; first compound 0.8 µM): 0.315
relative viability (NCI-H1703; first compound 2.53 µM): 0.241
relative viability (NCI-H1703; first compound 8 µM): 0.232
relative viability (NCI-H838; first compound 0.08 µM): 0.49
relative viability (NCI-H838; first compound 0.8 µM): 0.573
relative viability (NCI-H838; first compound 2.53 µM): 0.43
relative viability (NCI-H838; first compound 8 µM): 0.479
relative viability (NCI-H1666; first compound 0.08 µM): 0.482
relative viability (NCI-H1666; first compound 0.8 µM): 0.549
relative viability (NCI-H1666; first compound 2.53 µM): 0.365
relative viability (NCI-H1666; first compound 8 µM): 0.403
relative viability (201T; first compound 0.08 µM): 0.645
relative viability (201T; first compound 0.8 µM): 0.685
relative viability (201T; first compound 2.53 µM): 0.649
relative viability (201T; first compound 8 µM): 0.613
relative viability (NCI-H1355; first compound 0.08 µM): 0.501
relative viability (NCI-H1355; first compound 0.8 µM): 0.601
relative viability (NCI-H1355; first compound 2.53 µM): 0.4
relative viability (NCI-H1355; first compound 8 µM): 0.273
relative viability (NCI-H2009; first compound 0.08 µM): 0.947
relative viability (NCI-H2009; first compound 0.8 µM): 1.09
relative viability (NCI-H2009; first compound 2.53 µM): 0.659
relative viability (NCI-H2009; first compound 8 µM): 0.679
relative viability (BEN; first compound 0.08 µM): 0.583
relative viability (BEN; first compound 0.8 µM): 0.704
relative viability (BEN; first compound 2.53 µM): 0.743
relative viability (BEN; first compound 8 µM): 0.556
relative viability (HCC-366; first compound 0.08 µM): 0.151
relative viability (HCC-366; first compound 0.8 µM): 0.203
relative viability (HCC-366; first compound 2.53 µM): 0.149
relative viability (HCC-366; first compound 8 µM): 0.127
relative viability (NCI-H2405; first compound 0.08 µM): 0.555
relative viability (NCI-H2405; first compound 0.8 µM): 0.59
relative viability (NCI-H2405; first compound 2.53 µM): 0.439
relative viability (NCI-H2405; first compound 8 µM): 0.323
relative viability (NCI-H520; first compound 0.08 µM): 0.346
relative viability (NCI-H520; first compound 0.8 µM): 0.386
relative viability (NCI-H520; first compound 2.53 µM): 0.418
relative viability (NCI-H520; first compound 8 µM): 0.361
relative viability (IA-LM; first compound 0.08 µM): 0.367
relative viability (IA-LM; first compound 0.8 µM): 0.326
relative viability (IA-LM; first compound 2.53 µM): 0.383
relative viability (IA-LM; first compound 8 µM): 0.249
relative viability (NCI-H1734; first compound 0.08 µM): 0.492
relative viability (NCI-H1734; first compound 0.8 µM): 0.547
relative viability (NCI-H1734; first compound 2.53 µM): 0.557
relative viability (NCI-H1734; first compound 8 µM): 0.431
